Drawing on ChEMBL document CHEMBL1777683, “Identification of plasmepsin inhibitors as selective anti-malarial agents using ligand based drug design” (Bioorg Med Chem Lett, 2011), this text covers IC50, Ki and inhibition for 15 compounds.

Test [1] is described as follows: Inhibition of Plasmodium falciparum plasmepsin 4 using DABCYL-Glu-Arg-Nle-Phe-Leu- Ser-Phe-Pro-EDANS fluorogenic substrate by fluorogenic assay.
The target in test [2] is Cathepsin D (Homo sapiens) (UniProt P07339). The test can be described thus: Inhibition of human liver Cathepsin D using KPIEF(nF)RL chromogenic substrate at 5 uM by absorbance assay.
Cathepsin D (Homo sapiens), sequence (P07339 65-162 limits assumed): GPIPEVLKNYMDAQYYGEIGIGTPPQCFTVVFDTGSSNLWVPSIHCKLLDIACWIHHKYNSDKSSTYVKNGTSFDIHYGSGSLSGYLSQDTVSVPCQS
Cathepsin D (Homo sapiens), sequence (P07339 169-412 limits assumed): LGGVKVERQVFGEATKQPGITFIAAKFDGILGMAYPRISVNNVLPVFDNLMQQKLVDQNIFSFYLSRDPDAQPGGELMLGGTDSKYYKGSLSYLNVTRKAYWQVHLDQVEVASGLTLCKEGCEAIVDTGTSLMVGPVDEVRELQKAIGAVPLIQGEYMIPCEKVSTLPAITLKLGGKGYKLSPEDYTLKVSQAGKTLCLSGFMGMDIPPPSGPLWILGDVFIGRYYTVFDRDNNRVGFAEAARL
The test system of test [3] is Plasmodium falciparum. The test can be described thus: Antimalarial activity against Plasmodium falciparum 3D7 infected in RBC assessed as parasite-specific lactate dehydrogenase release. It counts as functional, organism-based.
A further test has as its target Plasmepsin II (Plasmodium falciparum, UniProt P46925). The test can be described thus: Inhibition of Plasmodium falciparum plasmepsin 2 using DABCYL-Glu-Arg-Nle-Phe-Leu- Ser-Phe-Pro-EDANS fluorogenic substrate by fluorogenic assay.
Test [4] concerns Plasmodium falciparum. The test can be described thus: Antimalarial activity against Plasmodium falciparum 3D7 infected in RBC assessed as parasite-specific lactate dehydrogenase release at 16 uM. It counts as functional.
Test [5] concerns Plasmodium falciparum. The test can be described thus: Inhibition of Plasmodium falciparum plasmepsin 4 using DABCYL-Glu-Arg-Nle-Phe-Leu- Ser-Phe-Pro-EDANS fluorogenic substrate at 5 uM by fluorogenic assay.
The target of test [6] is Plasmepsin II (Plasmodium falciparum) (UniProt P46925). The test can be described thus: Inhibition of Plasmodium falciparum plasmepsin 2 using DABCYL-Glu-Arg-Nle-Phe-Leu- Ser-Phe-Pro-EDANS fluorogenic substrate at 5 uM by fluorogenic assay.
Plasmepsin II (Plasmodium falciparum), sequence (P46925 125-453 limits assumed): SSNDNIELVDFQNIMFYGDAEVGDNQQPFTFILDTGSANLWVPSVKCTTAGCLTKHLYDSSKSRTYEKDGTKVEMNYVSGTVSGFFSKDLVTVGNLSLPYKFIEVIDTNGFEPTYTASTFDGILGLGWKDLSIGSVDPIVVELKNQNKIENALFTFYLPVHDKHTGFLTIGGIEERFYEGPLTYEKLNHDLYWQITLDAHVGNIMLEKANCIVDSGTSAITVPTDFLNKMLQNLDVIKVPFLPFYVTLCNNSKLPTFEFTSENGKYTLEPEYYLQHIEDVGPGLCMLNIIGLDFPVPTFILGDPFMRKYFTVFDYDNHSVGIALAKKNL

Plasmepsin II, sequence (P46925 whole entry): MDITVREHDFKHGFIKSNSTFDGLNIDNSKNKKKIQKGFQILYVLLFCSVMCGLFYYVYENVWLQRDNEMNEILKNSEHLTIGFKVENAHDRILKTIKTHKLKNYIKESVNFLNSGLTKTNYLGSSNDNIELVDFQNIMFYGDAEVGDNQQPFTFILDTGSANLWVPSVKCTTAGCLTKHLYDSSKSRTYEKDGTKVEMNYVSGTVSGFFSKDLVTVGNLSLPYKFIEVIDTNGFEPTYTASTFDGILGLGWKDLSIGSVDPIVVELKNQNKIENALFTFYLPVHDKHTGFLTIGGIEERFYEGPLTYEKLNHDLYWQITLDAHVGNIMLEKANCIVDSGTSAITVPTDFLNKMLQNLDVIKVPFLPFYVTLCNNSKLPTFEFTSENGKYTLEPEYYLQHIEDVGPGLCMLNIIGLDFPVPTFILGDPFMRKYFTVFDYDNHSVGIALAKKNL

On to `COc1ccc(Cl)cc1NC(=O)c1sc2nc(-c3ccccc3)cc(-c3ccc(OCc4ccccc4)c(OC)c3)c2c1N`, for which the IC50 was found to be 6.2 µM in test [1], 2.3 µM in the test on Plasmodium falciparum [3] and 2.3 µM against Plasmepsin II. In addition, the Ki in test [1] was found to be 5.4 µM; on Plasmepsin II it was 1.6 µM. In addition, the inhibition in test [2] turned out to be 12%.

In the case of `CCOC(=O)c1ccc(/N=C2\S/C(=C\c3ccc(C(C)(C)C)cc3)C(=O)N2c2ccc(C(=O)OCC)cc2)cc1`, the half-maximal inhibitory concentration (IC50) in test [1] came out at 3.7 µM; with Plasmodium falciparum [3] it was 5 µM; at Plasmepsin II, 6.1 µM. Moreover, the Ki in test [1] turned out to be 3.23 µM; at Plasmepsin II it was 4 µM. In test [2], the inhibition is 15%.

Take `CC(C)CCNC(=O)[C@H](c1c[nH]c2ccccc12)N(C(=O)c1snc(C(N)=O)c1N)c1ccc2c(c1)OCO2`: the half-maximal inhibitory concentration (IC50) in test [1] amounted to 26 µM; with Plasmodium falciparum [3], 2.21 µM; at Plasmepsin II, 21.3 µM. In addition, the Ki worked out at 20 µM in test [1] and 10.6 µM at Plasmepsin II. Also, the inhibition in test [2] was 12%.

Regarding `CCCCOc1ccc(-c2cc(C(=O)N/N=C(\C=C\c3ccc4c(c3)OCO4)c3ccc(OC)cc3)c3ccccc3n2)cc1`, in the test with Plasmodium falciparum [3], the IC50 was determined as 24 µM.

Regarding `CCCCc1ccc(-c2cc(C(=O)Nc3scc(-c4cccnc4)c3C(=O)OC)c3cc(Br)ccc3n2)cc1`, the IC50 with Plasmodium falciparum [3] was determined as 1.24 µM.

Consider `O=C(NCCNC(=O)/C(=C\c1ccco1)NC(=O)c1ccccc1)/C(=C/c1ccco1)NC(=O)c1ccccc1`, for which the IC50 with Plasmodium falciparum [3] is 12 µM.

With `CCOc1cccc(-c2cc(C(=O)N/N=C/c3ccc(OC)c(CN4CCSCC4)c3)c3ccccc3n2)c1`, the IC50 in the test with Plasmodium falciparum [3] turned out to be 40 µM.

As to `COc1ccc([C@@H](C(=O)NC2CCCC2)N(C(=O)c2snc(C(N)=O)c2N)c2ccc(OC)cc2)cc1`, in the test on Plasmodium falciparum [3], the IC50 was found to be 25 µM.

As to `CCCCOc1cccc(-c2cc(C(=O)N/N=C(\C)c3cccc(NC(=O)C(C)(C)C)c3)c3ccccc3n2)c1`, the IC50 came out at 15 µM in test [1], 3.7 µM in the test on Plasmodium falciparum [3] and 11.5 µM on Plasmepsin II. The Ki amounted to 13 µM in test [1] and 8 µM on Plasmepsin II. The inhibition in test [2] was found to be 12%.

Turning to `Cc1ccc(NC(=S)N(Cc2ccc3c(c2)OCO3)Cc2cc3cccc(C)c3[nH]c2=O)cc1`, the IC50 was found to be 6.3 µM in test [1], 9.6 µM in the test with Plasmodium falciparum [3] and 7 µM against Plasmepsin II. The Ki in test [1] is 5.5 µM; at Plasmepsin II, 4.6 µM. This compound gave an inhibition in test [2] of 35%.

With `CCN(CC)C(=O)c1sc(NC(=O)c2cc(-c3cccc(C)c3)nc3ccccc23)c(C(=O)OC)c1C`, the figures for the IC50 (in test [1]; with Plasmodium falciparum [3]; on Plasmepsin II) were 2.6 µM, 4.5 µM and 2.5 µM, respectively. Further, the Ki in test [1] turned out to be 2.5 µM; at Plasmepsin II it was 2 µM. Further, the inhibition in test [2] was 20%.

With `COc1ccc(-c2cc(-c3ccc(Cl)cc3)c(C#N)c(S[C@H](C)C(=O)Nc3ccc(C(C)=O)cc3)n2)cc1`, the inhibition at 16 µM with Plasmodium falciparum [4] came to 32%.

Regarding `COC(=O)CCC(=O)N(CCN(Cc1ccccc1)C(=O)CCC(=O)OC)Cc1ccccc1`, the IC50 in test [1] worked out at 9 µM; in the test with Plasmodium falciparum [3], 5.24 µM; at Plasmepsin II, 10 µM. The same compound yielded an inhibition in test [2] of 35%. This compound also displayed a Ki at Plasmepsin II of 7 µM.

Take `CCN(CC)c1ccc(/C=N/NC(=O)CSc2nc3ccccc3n2Cc2ccc(Cl)cc2)cc1`: the IC50 in test [1] turned out to be 0.62 µM; in the test on Plasmodium falciparum [3], 2.18 µM; on Plasmepsin II, 2.4 µM. Also, the figures for the Ki (in test [1]; at Plasmepsin II) were 0.47 µM and 1.2 µM, respectively. Also, the inhibition in test [2] was 10%.

With `CCOc1ccc(N(C(=O)c2snc(C(=O)NC3CCCCC3)c2N)[C@H](C(=O)NCCc2ccccc2)c2ccc(OC)cc2)cc1`, the inhibition worked out at 20% in the test on Plasmodium falciparum [5], 20% in test [2] and 30% in test [6]. Further, the IC50 in the test with Plasmodium falciparum [3] was 0.35 µM.

One may read the IC50 as the concentration that gives 50% inhibition. As usually defined, the Ki is a dissociation constant, usually derived from enzyme kinetics or from competition with a known ligand. As usually defined, the inhibition is the percentage by which the read-out fell short of the control.
